Experimental data taken from patent US9561228B2 (Celgene Avilomics Research, Inc., priority 2013, dated 2017).

How the values were obtained:
[1] = target: T1, MEK1 activated ERK1 (Homo sapiens, UniProt P27361); experiment: Omnia continuous-read kinase assay for potency against MEK1 activated ERK1; type: biochemical; conditions: MEK1 activated ERK1, ATP at KM; read-out: ERK1 Omnia WT ATP KM IC50
T1 construct: purchased Millipore (Billerica, Mass.) 14-439-K
How it was run: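 Apparent IC50 came from initial reaction slopes (RFU vs time) plotted against log inhibitor with a variable-slope fit. Reactions were started with ERK1 (4 nM final) added to 50 μM ATP, roughly at its appKM, and 10 μM Sox-conjugated ST17 peptide in 20 mM Tris pH 7.5, 5 mM MgCl2. Fluorescence was monitored every 71 seconds.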

[2] = tested on: HT-29 cells (colorectal adenocarcinoma); experiment: Inhibition of cancer cell proliferation, HT-29 (CellTiterGlo, 72 hours); type: cell-based; conditions: Homo sapiens
Protocol: Measurement of Inhibition of Cancer Cell Proliferation (HT-29/Colorectal Adenocarcinoma)
The following protocol used an HT-29 cell line, which cell line is a model for colorectal adenocarcinoma. HT-29 cells were split and 3000 cells in 100 μl of growth medium were added per well of a flat-bottom 96-well plate. A two-fold test compound solution in serum-free RPM1640 was made, starting at 5,000 nM. Then, 3-fold serial dilutions were made across the plate from well 1 to well 11. Well 12, the last well in a row on the plate, was left as untreated control. 100 μl compound solutions were then transferred to the wells, so the total volume of media was 200 μl per well. Plates were returned to a 37° C. incubator, and the cells were cultured for 72 hours. To measure cell proliferation after 72 hours, media was discarded from the plates, 50 μl/well of fresh medium was added, and 50 μl CellTiterGlo solution was added (Promega Cat#G7573). The plate was covered with a dark lid and incubated for 10 min. A white sealing tape was applied to the bottom of the plate, and the plate was read in a luminescence plate reader. […] A 2-fold serial dilution was used to generate 8 cell densities from 50,000-390 cells per well in 50 μl media. 50 μl CellTiterGlo was added per well, and the plate was read in a luminescence plate reader after 10 min. The reading was plotted vs. cell number to generate a standard curve and the equation of the curve fit. The compound-treated sample luminescence readings were converted to cell numbers using the curve-fit equation. The percent of inhibition, using untreated control as 100% growth, was then calculated. GI50 was then calculated by GraphPad Prism.

[3] = tested on: ERK1/2 phosphorylation of p90RSK in HT29 cells; experiment: pRSK MSD Assay in HT29 cells; type: cell-based; conditions: Homo sapiens, HT-29, read-out: ERK1/ERK2 PRSK MSD HT29 EC50
How it was run: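 Serum-starved HT29 cells (0.1% FBS overnight) treated with test compound for 120 min at 37° C, then lysed with protease and phosphatase inhibitors. Phospho-p90RSK quantified by MSD sandwich immunoassay: RSK capture antibody, phospho-RSK detection antibody plus Sulfo-tagged antibody, electrochemiluminescence read.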

T1 sequence (P27361 whole entry): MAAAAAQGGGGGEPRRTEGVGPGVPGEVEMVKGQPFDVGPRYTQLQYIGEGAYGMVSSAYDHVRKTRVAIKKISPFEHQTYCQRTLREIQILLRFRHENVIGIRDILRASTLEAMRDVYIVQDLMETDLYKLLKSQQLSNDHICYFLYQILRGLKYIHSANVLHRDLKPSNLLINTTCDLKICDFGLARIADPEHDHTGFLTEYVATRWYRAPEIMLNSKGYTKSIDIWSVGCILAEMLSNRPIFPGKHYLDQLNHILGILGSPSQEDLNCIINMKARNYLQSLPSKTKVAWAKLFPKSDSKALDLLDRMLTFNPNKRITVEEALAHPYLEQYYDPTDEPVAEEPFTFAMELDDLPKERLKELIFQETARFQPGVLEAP

IC50 [1] | GI50 [2] | EC50 [3] | SMILES
< 0.1 µM | 0.101 to 0.5 µM | 0.101 to 0.5 µM | C=CC(=O)Nc1cc(F)ccc1Nc1nc(N[C@@H]2CCC[C@H](C(N)=O)C2)ncc1C(F)(F)F (racemic) [Compound I-5, Rac-cis-3-((4-((2-acrylamido-4-fluorophenyl)amino)-5-(trifluoromethyl)pyrimidin-2-yl)amino)cyclohexanecarboxamide]
< 0.1 µM | < 0.1 µM | 0.101 to 0.5 µM | C=CC(=O)Nc1ccccc1Nc1nc(N[C@@H]2CCC[C@H](C(=O)NOCCO)C2)ncc1Cl (racemic) [Compound I-103, Rac-3-((4-((2-acrylamidophenyl)amino)-5-chloropyrimidin-2-yl)amino)-N-(2-hydroxyethoxy)-cis-cyclohexanecarboxamide]
0.501 to 0.999 µM | 0.501 to 0.999 µM | > 1 µM | C=CC(=O)N(C)c1ccccc1Nc1nc(N[C@@H]2CCC[C@H](C(N)=O)C2)ncc1Cl (racemic) [Compound I-105, Rac-cis-3-((5-chloro-4-((2-(N-methylacrylamido)phenyl)amino)pyrimidin-2-yl)amino)cyclohexanecarboxamide]
< 0.1 µM | 0.101 to 0.5 µM | < 0.1 µM | C=CC(=O)Nc1cc(F)ccc1Nc1nc(N[C@@H]2CCC[C@H](C(N)=O)C2)ncc1Cl (racemic) [Compound I-112, Rac-cis-3-((4-((2-acrylamido-4-fluorophenyl)amino)-5-chloropyrimidin-2-yl)amino)cyclohexanecarboxamide]
> 1 µM | > 1 µM | – | C=CC(=O)N[C@@H]1CCCC[C@H]1Nc1nc(Nc2cc(C(N)=O)ccc2C)ncc1C(N)=O (racemic) [Compound I-255, Rac-trans-4-((2-acrylamidocyclohexyl)amino)-2-((5-carbamoyl-2-methylphenyl)amino)pyrimidine-5-carboxamide]
> 1 µM | > 1 µM | – | C=CC(=O)N[C@@H]1CCCC[C@H]1Nc1nc(Nc2cc(C(=O)NOC)ccc2C)ncc1C(N)=O (racemic) [Compound I-256, Rac-trans-4-((2-acrylamidocyclohexyl)amino)-2-((5-(methoxycarbamoyl)-2-methylphenyl)amino)pyrimidine-5-carboxamide]
0.101 to 0.5 µM | 0.101 to 0.5 µM | 0.101 to 0.5 µM | C=CC(=O)Nc1ccccc1Nc1nc(NC2CCN(C=O)CC2)ncc1C(F)(F)F [Compound I-11, N-(2-((2-((1-formylpiperidin-4-yl)amino)-5-(trifluoromethyl)pyrimidin-4-yl)amino)phenyl)acrylamide]
0.101 to 0.5 µM | 0.101 to 0.5 µM | 0.101 to 0.5 µM | C=CC(=O)Nc1ccccc1Nc1nc(NC2CCN(C(C)=O)CC2)ncc1C(F)(F)F [Compound I-12, N-(2-((2-((1-acetylpiperidin-4-yl)amino)-5-(trifluoromethyl)pyrimidin-4-yl)amino)phenyl)acrylamide]
0.101 to 0.5 µM | > 1 µM | – | C=CC(=O)Nc1ccccc1Nc1nc(Nc2cc(C(=O)NOC)ccc2C#N)ncc1C(F)(F)F [Compound I-72, 3-((4-((2-Acrylamidophenyl)amino)-5-(trifluoromethyl)pyrimidin-2-yl)amino)-4-cyano-N-methoxybenzamide]
0.101 to 0.5 µM | 0.101 to 0.5 µM | 0.501 to 0.999 µM | C=CC(=O)Nc1ccccc1Nc1nc(Nc2cc(C(=O)NOCCO)ccc2OC)ncc1C(F)(F)F [Compound I-74, 3-((4-((2-Acrylamidophenyl)amino)-5-(trifluoromethyl)pyrimidin-2-yl)amino)-N-(2-hydroxyethoxy)-4-methoxybenzamide]
0.101 to 0.5 µM | 0.101 to 0.5 µM | 0.101 to 0.5 µM | C=CC(=O)Nc1ccccc1Nc1nc(NC2CCN(C(C)=O)CC2)ncc1Cl [Compound I-116, N-(2-((2-((1-acetylpiperidin-4-yl)amino)-5-chloropyrimidin-4-yl)amino)phenyl)acrylamide]
0.101 to 0.5 µM | 0.101 to 0.5 µM | 0.101 to 0.5 µM | C=CC(=O)Nc1ccccc1Nc1nc(NC2CCN(S(C)(=O)=O)CC2)ncc1Cl [Compound I-117, N-(2-((5-chloro-2-((1-(methylsulfonyl)piperidin-4-yl)amino)pyrimidin-4-yl)amino)phenyl)acrylamide]
– | 0.101 to 0.5 µM | 0.501 to 0.999 µM | C=CC(=O)Nc1ccccc1Nc1nc(N[C@@H]2CCC[C@H](C(N)=O)C2)ncc1Cl [Compound I-119, (1S,3R)-3-((4-((2-acrylamidophenyl)amino)-5-chloropyrimidin-2-yl)amino)cyclohexanecarboxamide]
< 0.1 µM | 0.101 to 0.5 µM | < 0.1 µM | C=CC(=O)Nc1ccccc1Nc1nc(N[C@H]2CCCN(C=O)C2)ncc1Cl [Compound I-122, (S)—N-(2-((5-chloro-2-((1-formylpiperidin-3-yl)amino)pyrimidin-4-yl)amino)phenyl)acrylamide]
– | 0.101 to 0.5 µM | < 0.1 µM | C=CC(=O)Nc1ccccc1Nc1nc(NC2CCN(C=O)CC2)ncc1Cl [Compound I-124, N-(2-((5-chloro-2-((1-formylpiperidin-4-yl)amino)pyrimidin-4-yl)amino)phenyl)acrylamide]
– | 0.101 to 0.5 µM | 0.101 to 0.5 µM | C=CC(=O)Nc1ccccc1Nc1nc(N[C@H]2CCCN(S(C)(=O)=O)C2)ncc1Cl [Compound I-125, (S)—N-(2-((5-chloro-2-((1-(methylsulfonyl)piperidin-3-yl)amino)pyrimidin-4-yl)amino)phenyl)acrylamide]
– | < 0.1 µM | < 0.1 µM | C=CC(=O)Nc1ccccc1Nc1nc(Nc2cc(C(N)=O)ccc2C#N)ncc1Cl [Compound I-192, 3-((4-((2-acrylamidophenyl)amino)-5-chloropyrimidin-2-yl)amino)-4-cyanobenzamide]
– | 0.101 to 0.5 µM | 0.101 to 0.5 µM | C=CC(=O)Nc1ccccc1Nc1nc(Nc2cc(C(N)=O)ccc2CC)ncc1Cl [Compound I-193, 3-((4-((2-acrylamidophenyl)amino)-5-chloropyrimidin-2-yl)amino)-4-ethylbenzamide]
– | 0.101 to 0.5 µM | < 0.1 µM | C=CC(=O)Nc1cc(F)ccc1Nc1nc(Nc2cc(C(N)=O)ccc2OC)ncc1Cl [Compound I-208]
– | 0.501 to 0.999 µM | < 0.1 µM | C=CC(=O)Nc1cc(F)ccc1Nc1nc(Nc2ccc(F)cc2C#N)ncc1Cl [Compound I-221, N-(2-((5-chloro-2-((2-cyano-4-fluorophenyl)amino)pyrimidin-4-yl)amino)-5-fluorophenyl)acrylamide]
0.101 to 0.5 µM | > 1 µM | – | C=CC(=O)Nc1ccccc1Oc1nc(Nc2ccc(N3CCC[C@@H]3C(N)=O)cc2OC)ncc1C(N)=O [Compound I-266, (R)-4-(2-acrylamidophenoxy)-2-((4-(2-carbamoylpyrrolidin-1-yl)-2-methoxyphenyl)amino)pyrimidine-5-carboxamide]
– | > 1 µM | > 1 µM | C=CC(=O)Nc1ccccc1Nc1nc(Nc2ccc(OCCCNC(=O)CCCC(=O)NCCCOCCOCCOCCCNC(=O)CCCC[C@H]3SC[C@H]4NC(=O)N[C@H]43)cc2OC)ncc1Cl [Compound I-302, N^1-(3-(4-((4-((2-acrylamidophenyl)amino)-5-chloropyrimidin-2-yl)amino)-3-methoxyphenoxy)propyl)-N^5-(15-oxo-19-((3aR,4R,6aS)-2-oxohexahydro-1H-thieno[3,4-d]imidazol-4-yl)-4,7,10-trioxa-14-azanonadecyl)glutaramide]
